Measured values taken from patent US20230372367A1 (GW Research Limited, priority 2020, published 2023).
Entries after “also recorded” stand apart in the source; their conditions may differ.

Experiments:
Assay type in all cases: in vivo, human
[1] = tested on: focal seizures with secondary generalisation in patients diagnosed with encephalocele; assay: Open label, expanded-access program: frequency of focal seizures with secondary generalisation; details: Patient 2, baseline 85.0
Description: (§1) Subjects were required to be on one or more AEDs at stable doses for a minimum of two weeks prior to baseline and to have stable vagus nerve stimulation (VNS) settings and ketogenic diet ratios for a minimum of four weeks prior to baseline.
(§2) A maximum dose of 50 mg/kg/day could be utilised for patients who were tolerating the medication but had not achieved seizure control; these patients had further weekly titration by 5 mg/kg/day.
(§3) Modifications were made to concomitant AEDs as per clinical indication.
(§4) Seizure frequency, intensity, and duration were recorded by caregivers in a diary during a baseline period of at least 28 days. Changes in seizure frequency relative to baseline were calculated after at least 2 weeks and at defined timepoints of treatment.
(§5) Patients may be defined as responders if they had more than 50% reduction in seizure frequency compared to baseline. The percent change in seizure frequency was calculated as follows: […]
(§6) The percent change of seizure frequency may be calculated for any time interval where seizure number has been recorded. For the purpose of this example the percent change of seizure frequency for the end of the treatment period was calculated as follows: […]

[2] = tested on: seizures associated with encephalocele; assay: Open label, expanded-access program: seizures overall; details: two patients
Description: as §1, §2, §3, §4, §5, §6

[3] = tested on: focal seizures with impairment in patients diagnosed with encephalocele; assay: Open label, expanded-access program: frequency of focal seizures with impairment; design: Seizure frequency, Focal with impairment: unit not given here
Description: as §1, §3, §4, §5, §6

[4] = tested on: absence seizures in patients diagnosed with encephalocele; assay: Open label, expanded-access program: absence seizure frequency; details: for Seizure frequency, Absence: baseline 6.8
Description: as §1, §2, §3, §4, §5, §6

SMILES: C=C(C)[C@@H]1CCC(C)=C[C@H]1c1c(O)cc(CCCCC)cc1O [CBD, cannabidiol]
- Seizure frequency, Focal with secondary generalisation ([1]; 2 weeks, CBD 10.0 mg/kg/day): 90.0
- Seizure frequency, Focal with secondary generalisation ([1]; 4 weeks, CBD 20.0 mg/kg/day): 28.8
- Seizure frequency, Focal with secondary generalisation ([1]; 8 weeks, CBD 25.0 mg/kg/day): 90.2
- Seizure frequency, Focal with secondary generalisation ([1]; 12 weeks, CBD 25.0 mg/kg/day): 197.9
- Seizure frequency, Focal with secondary generalisation ([1]; 16 weeks, CBD 25.0 mg/kg/day): 212.8
- Seizure frequency, Focal with secondary generalisation ([1]; 24 weeks, CBD 25.0 mg/kg/day): 145.6
- Seizure frequency, Focal with secondary generalisation ([1]; 48 weeks, CBD 46.0 mg/kg/day): 143.1
- Seizure frequency, Focal with secondary generalisation ([1]; 60 weeks, CBD 24.0 mg/kg/day): 141.0
- Seizure frequency, Focal with secondary generalisation ([1]; 72 weeks, CBD 25.0 mg/kg/day): 148.6
- Seizure frequency, Focal with secondary generalisation ([1]; 84 weeks, CBD 25.0 mg/kg/day): 143.1
- Seizure frequency, Focal with secondary generalisation ([1]; 96 weeks, CBD 25.0 mg/kg/day): 117.8
- Seizure frequency, Focal with secondary generalisation ([1]; 108 weeks, CBD 20.0 mg/kg/day): 119.1
- Seizure frequency, Focal with secondary generalisation ([1]; 120 weeks, CBD 20.0 mg/kg/day): 146.6
- Seizure frequency, Focal with secondary generalisation ([1]; 144 weeks, CBD 22.0 mg/kg/day): 91.1
- effect on number of seizures associated with encephalocele (in words) [2]: significantly reduce the number of seizures
- reductions in seizures over period of treatment ([2]; absence and focal seizures with impairment, relative to baseline): 20-100%
- Seizure frequency, Focal with impairment ([3]; Patient 1, 4 weeks, CBD 25.0 mg/kg/day, baseline 92.5): 104.0
- Seizure frequency, Focal with impairment ([3]; Patient 1, 8 weeks, CBD 30.0 mg/kg/day, baseline 92.5): 92.8
- Seizure frequency, Focal with impairment ([3]; Patient 1, 12 weeks, CBD 25.0 mg/kg/day, baseline 92.5): 98.0
- Seizure frequency, Focal with impairment ([3]; Patient 1, 24 weeks, CBD 15.0 mg/kg/day, baseline 92.5): 93.1
- Seizure frequency, Focal with impairment ([3]; Patient 1, 60 weeks, CBD 15.0 mg/kg/day, baseline 92.5): 95.0
- Seizure frequency, Focal with impairment ([3]; Patient 2, 2 weeks, CBD 10.0 mg/kg/day, baseline 6.0): 10.0
- Seizure frequency, Focal with impairment ([3]; Patient 2, 4 weeks, CBD 20.0 mg/kg/day, baseline 6.0): 6.8
- Seizure frequency, Focal with impairment ([3]; Patient 2, 8 weeks, CBD 25.0 mg/kg/day, baseline 6.0): 13.5
- Seizure frequency, Focal with impairment ([3]; Patient 2, 12 weeks, CBD 25.0 mg/kg/day, baseline 6.0): 25.1
- Seizure frequency, Focal with impairment ([3]; Patient 2, 16 weeks, CBD 25.0 mg/kg/day, baseline 6.0): 14.6
- Seizure frequency, Focal with impairment ([3]; Patient 2, 24 weeks, CBD 25.0 mg/kg/day, baseline 6.0): 12.9
- Seizure frequency, Focal with impairment ([3]; Patient 2, 48 weeks, CBD 46.0 mg/kg/day, baseline 6.0): 14.5
- Seizure frequency, Focal with impairment ([3]; Patient 2, 60 weeks, CBD 24.0 mg/kg/day, baseline 6.0): 18.1
- Seizure frequency, Focal with impairment ([3]; Patient 2, 72 weeks, CBD 25.0 mg/kg/day, baseline 6.0): 13.4
- Seizure frequency, Focal with impairment ([3]; Patient 2, 84 weeks, CBD 25.0 mg/kg/day, baseline 6.0): 9.8
- Seizure frequency, Focal with impairment ([3]; Patient 2, 96 weeks, CBD 25.0 mg/kg/day, baseline 6.0): 22.9
- Seizure frequency, Focal with impairment ([3]; Patient 2, 108 weeks, CBD 20.0 mg/kg/day, baseline 6.0): 9.4
- Seizure frequency, Focal with impairment ([3]; Patient 2, 120 weeks, CBD 20.0 mg/kg/day, baseline 6.0): 11.3
- Seizure frequency, Focal with impairment ([3]; Patient 2, 144 weeks, CBD 22.0 mg/kg/day, baseline 6.0): 4.8
- reduction in focal seizures with impairment over the treatment period ([3]; Patient 2, treated for 144 weeks, relative to baseline): 20%
- effect on frequency of focal seizures with impairment (in words) ([3]; patients with encephalocele): effective in reducing the frequency; also recorded: significant reduction
- Seizure frequency, Absence ([4]; Patient 1, 2 weeks, CBD 15.0 mg/kg/day): 6.0
- Seizure frequency, Absence ([4]; Patient 1, 4 weeks, CBD 25.0 mg/kg/day): 8.0
- Seizure frequency, Absence ([4]; Patient 1, 8 weeks, CBD 30.0 mg/kg/day): 0
- Seizure frequency, Absence ([4]; Patient 1, 12 weeks, CBD 25.0 mg/kg/day): 0
- Seizure frequency, Absence ([4]; Patient 1, 24 weeks, CBD 15.0 mg/kg/day): 1.6
- Seizure frequency, Absence ([4]; Patient 1, 36 weeks, CBD 10.0 mg/kg/day): 0
- Seizure frequency, Absence ([4]; Patient 1, 48 weeks, CBD 10.0 mg/kg/day): 0
- Seizure frequency, Absence ([4]; Patient 1, 60 weeks, CBD 15.0 mg/kg/day): 0
- Seizure frequency, Absence ([4]; Patient 1, 84 weeks, CBD 15.0 mg/kg/day): 0
- seizure freedom from absence seizures ([4]; Patient 1, after 36 weeks of treatment): completely seizure free from absence seizures
- reduction in absence seizures over the treatment period ([4]; Patient 1, treated for 144 weeks, relative to baseline): 100%
- effect on frequency of absence seizures (in words) ([4]; patients with encephalocele): effective in reducing the frequency; also recorded: significant reduction
